In ChEMBL document CHEMBL4680273, “Teixobactin: A Paving Stone toward a New Class of Antibiotics?” (2020):
Values after ≈ are worked out from the molar mass of the structure shown.

Key:
Type in all cases: functional
Staphylococcus aureus [1] = assay: Antibacterial activity against methicillin resistant Staphylococcus aureus ATCC 33591 incubated for 24 hrs
Bacillus subtilis [2] = assay: Antibacterial activity against Bacillus subtilis 168 incubated for 24 hrs
Staphylococcus aureus [3] = assay: Antibacterial activity against methicillin resistant Staphylococcus aureus
Staphylococcus aureus [4] = assay: Antibacterial activity against Staphylococcus aureus ATCC 29213
Bacillus subtilis [5] = assay: Antibacterial activity against Bacillus subtilis ATCC 6051 incubated for 16 hrs by UV/Visible absorbance method
Staphylococcus aureus [6] = assay: Antibacterial activity against Staphylococcus aureus ATCC 29213 incubated for 16 hrs by UV/Visible absorbance method

Compound CC[C@H](C)[C@H](NC(=O)[C@@H](Cc1ccccc1)NC)C(=O)N[C@@H](CO)C(=O)N[C@H](CCC(N)=O)C(=O)N[C@@H](C(=O)N[C@H](C(=O)N[C@@H](CO)C(=O)N[C@H]1C(=O)N[C@@H](C)C(=O)N[C@@H](CCCN)C(=O)N[C@@H]([C@@H](C)CC)C(=O)O[C@H]1C)[C@@H](C)CC)[C@@H](C)CC has an MIC (Staphylococcus aureus [1]) of 2 µg/mL (≈ 1.66 µM) and an MIC (Bacillus subtilis [2]) of 0.25 µg/mL (≈ 0.208 µM).

CC[C@H](C)[C@H](NC(=O)[C@@H](Cc1ccccc1)NC)C(=O)N[C@@H](C)C(=O)N[C@H](CCC(N)=O)C(=O)N[C@@H](C(=O)N[C@H](C(=O)N[C@@H](CO)C(=O)N[C@H]1C(=O)N[C@@H](C)C(=O)N[C@@H](CCCCN)C(=O)N[C@@H]([C@@H](C)CC)C(=O)O[C@H]1C)[C@@H](C)CC)[C@@H](C)CC gave an MIC (Staphylococcus aureus [3]) of 1 µg/mL (≈ 0.833 µM) and an MIC (Staphylococcus aureus [4]) of 0.5 µg/mL (≈ 0.416 µM).

CC[C@H](C)[C@H](NC(=O)[C@@H](Cc1ccccc1)NC)C(=O)N[C@@H](CO)C(=O)N[C@H](CCC(N)=O)C(=O)N[C@@H](C(=O)N[C@H](C(=O)N[C@@H](CO)C(=O)N[C@H]1C(=O)N[C@@H](C)C(=O)N[C@@H](CCCCNC(=N)N)C(=O)N[C@@H]([C@@H](C)CC)C(=O)O[C@H]1C)[C@@H](C)CC)[C@@H](C)CC was tested, and the MIC (Staphylococcus aureus [1]) was 1 µg/mL (≈ 0.795 µM) and the MIC (Bacillus subtilis [2]) was 0.125 µg/mL (≈ 0.0993 µM).

In the case of CC[C@H](C)[C@H](NC(=O)[C@@H](Cc1ccccc1)NC)C(=O)N[C@@H](CO)C(=O)N[C@H](CCC(N)=O)C(=O)N[C@@H](C(=O)N[C@H](C(=O)N[C@@H](CO)C(=O)N[C@H]1C(=O)N[C@@H](CCCCN)C(=O)N[C@@H](CCCNC(=N)N)C(=O)N[C@@H]([C@@H](C)CC)C(=O)O[C@H]1C)[C@@H](C)CC)[C@@H](C)CC, the MIC (Staphylococcus aureus [4]) is reported as 6 µg/mL (≈ 4.61 µM) and the MIC (Bacillus subtilis [5]) is reported as 1 µg/mL (≈ 0.768 µM).

For CC[C@H](C)[C@H](NC(=O)[C@@H](Cc1ccccc1)NC)C(=O)N[C@@H](CO)C(=O)N[C@H](CCC(N)=O)C(=O)N[C@@H](C(=O)N[C@H](C(=O)N[C@@H](CO)C(=O)N[C@H]1C(=O)N[C@@H](C)C(=O)N[C@@H](CCN)C(=O)N[C@@H]([C@@H](C)CC)C(=O)O[C@H]1C)[C@@H](C)CC)[C@@H](C)CC, the MIC (Staphylococcus aureus [1]) was 2 µg/mL (≈ 1.68 µM) and the MIC (Bacillus subtilis [2]) was 1 µg/mL (≈ 0.841 µM).

In the case of CC[C@H](C)[C@H](NC(=O)[C@@H](Cc1ccccc1)NC)C(=O)N[C@@H](CO)C(=O)N[C@H](C)C(=O)N[C@@H](C(=O)N[C@H](C(=O)N[C@@H](C)C(=O)N[C@H]1C(=O)N[C@@H](C)C(=O)N[C@@H](CCCCN)C(=O)N[C@@H]([C@@H](C)CC)C(=O)O[C@H]1C)[C@@H](C)CC)[C@@H](C)CC, the MIC (Staphylococcus aureus [6]) is reported as 1 µg/mL (≈ 0.875 µM) and the MIC (Bacillus subtilis [5]) is reported as 4 µg/mL (≈ 3.5 µM).

CC[C@H](C)[C@H](NC(=O)[C@@H](Cc1ccccc1)NC)C(=O)N[C@@H](CO)C(=O)N[C@H](CCC(N)=O)C(=O)N[C@@H](C(=O)N[C@H](C(=O)N[C@@H](CO)C(=O)N[C@H]1C(=O)N[C@@H](C)C(=O)N[C@@H](CCCCN)C(=O)N[C@@H]([C@@H](C)CC)C(=O)O[C@H]1C)[C@@H](C)CC)[C@@H](C)CC was tested, and the MIC (Staphylococcus aureus [1]) was 1 µg/mL (≈ 0.822 µM) and the MIC (Bacillus subtilis [2]) was 0.25 µg/mL (≈ 0.206 µM).

In the case of CC[C@H](C)[C@H](NC(=O)[C@@H](Cc1ccccc1)NC)C(=O)N[C@@H](CO)C(=O)N[C@H](CCCCN)C(=O)N[C@@H](C(=O)N[C@H](C(=O)N[C@@H](C)C(=O)N[C@H]1C(=O)N[C@@H](C)C(=O)NC(CCCN)C(=O)N[C@@H]([C@@H](C)CC)C(=O)O[C@H]1C)[C@@H](C)CC)[C@@H](C)CC (some centres not stated), the MIC (Staphylococcus aureus [6]) is reported as 2 µg/mL (≈ 1.69 µM) and the MIC (Bacillus subtilis [5]) is reported as 2 µg/mL (≈ 1.69 µM).

For CC[C@H](C)[C@H](NC(=O)[C@@H](Cc1ccccc1)NC)C(=O)N[C@@H](CO)C(=O)N[C@H](CCC(N)=O)C(=O)N[C@@H](C(=O)NC(C(=O)N[C@@H](CO)C(=O)N[C@H]1C(=O)N[C@@H](C)C(=O)N[C@@H](CCCNC(=N)N)C(=O)NC(C2CCCCC2)C(=O)O[C@H]1C)C1CCCCC1)[C@@H](C)CC (some centres not stated), the MIC (Bacillus subtilis [5]) was 1 µg/mL (≈ 0.771 µM).

CC[C@H](C)[C@H](NC(=O)[C@@H](Cc1ccccc1)NC)C(=O)N[C@@H](CO)C(=O)N[C@H](CCC(N)=O)C(=O)N[C@@H](C(=O)N[C@H](C(=O)N[C@@H](CO)C(=O)N[C@H]1C(=O)N[C@@H](C)C(=O)NC(CN)C(=O)N[C@@H]([C@@H](C)CC)C(=O)O[C@H]1C)[C@@H](C)CC)[C@@H](C)CC (some centres not stated) showed an MIC (Staphylococcus aureus [1]) of 4 µg/mL (≈ 3.41 µM) and an MIC (Bacillus subtilis [2]) of 0.5 µg/mL (≈ 0.426 µM).

Work on CC[C@H](C)[C@H](NC(=O)[C@@H](Cc1ccccc1)NC)C(=O)N[C@@H](CO)C(=O)N[C@H](CCC(N)=O)C(=O)N[C@@H](C(=O)N[C@H](C(=O)N[C@@H](CO)C(=O)N[C@H]1C(=O)N[C@@H](C)C(=O)N[C@@H](CNC(=N)N)C(=O)N[C@@H]([C@@H](C)CC)C(=O)O[C@H]1C)[C@@H](C)CC)[C@@H](C)CC yielded an MIC (Staphylococcus aureus [1]) of 4 µg/mL (≈ 3.29 µM) and an MIC (Bacillus subtilis [2]) of 1 µg/mL (≈ 0.822 µM).

CC[C@H](C)[C@H](NC(=O)[C@H](NC(=O)[C@@H](CCC(N)=O)NC(=O)[C@H](CO)NC(=O)[C@H](C)NC(=O)[C@@H](Cc1ccccc1)NC)[C@@H](C)CC)C(=O)N[C@@H](CO)C(=O)N[C@H]1C(=O)N[C@@H](C)C(=O)N[C@@H](CCCCN)C(=O)N[C@@H]([C@@H](C)CC)C(=O)O[C@H]1C showed an MIC (Bacillus subtilis [5]) of 32 µg/mL (≈ 27.2 µM).
